Source: ChEMBL document CHEMBL3397007, “Synthesis, biological activity and molecular modeling of new biphenylic carboxamides as potent and selective CB2 receptor ligands” (Eur J Med Chem, 2015)
Activity calls are given as the source filed them. The calls are words filed in the database; no cut-off is given here.

Tests used:
Cannabinoid receptor 1 = Cannabinoid receptor 1 (Homo sapiens, UniProt P21554); test: Displacement of [3H]CP55,940 from human recombinant CB1 receptor expressed in HEK293 cell membranes after 90 mins
Chain of Cannabinoid receptor 1 (P21554 whole entry): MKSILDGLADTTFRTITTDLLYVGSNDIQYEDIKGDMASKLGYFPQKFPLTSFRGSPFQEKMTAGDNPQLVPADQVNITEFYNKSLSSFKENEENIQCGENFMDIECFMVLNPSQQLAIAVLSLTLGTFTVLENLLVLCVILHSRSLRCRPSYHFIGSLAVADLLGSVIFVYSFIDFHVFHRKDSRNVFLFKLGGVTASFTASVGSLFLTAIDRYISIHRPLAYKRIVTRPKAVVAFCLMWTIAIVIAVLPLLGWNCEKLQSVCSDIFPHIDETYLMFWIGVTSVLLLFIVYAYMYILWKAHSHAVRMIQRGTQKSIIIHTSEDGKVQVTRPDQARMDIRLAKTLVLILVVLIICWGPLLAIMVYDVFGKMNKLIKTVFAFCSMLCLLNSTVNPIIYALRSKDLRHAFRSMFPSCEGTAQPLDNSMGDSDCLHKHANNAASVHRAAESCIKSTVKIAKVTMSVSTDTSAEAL

Cannabinoid receptor 2 [1] = biological target: T1, Cannabinoid receptor 2 (Homo sapiens, UniProt P34972); test: Displacement of [3H]CP55,940 from human recombinant CB2 receptor expressed in HEK293 cell membranes after 90 mins
T1 sequence (P34972 whole entry): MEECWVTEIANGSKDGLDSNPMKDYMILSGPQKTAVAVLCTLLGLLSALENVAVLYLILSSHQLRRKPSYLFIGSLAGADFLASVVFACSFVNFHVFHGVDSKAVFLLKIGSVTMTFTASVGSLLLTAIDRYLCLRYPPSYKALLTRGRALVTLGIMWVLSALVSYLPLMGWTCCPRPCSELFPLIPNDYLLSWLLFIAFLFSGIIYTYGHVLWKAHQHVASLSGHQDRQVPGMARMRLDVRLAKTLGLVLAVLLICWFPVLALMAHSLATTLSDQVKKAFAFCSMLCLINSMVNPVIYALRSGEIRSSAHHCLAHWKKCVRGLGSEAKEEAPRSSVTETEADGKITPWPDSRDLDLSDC

HEK293 = test: Selectivity index, ratio of Ki for human recombinant CB1 receptor expressed in HEK293 cell membranes to Ki for human recombinant CB2 receptor expressed in HEK293 cell membranes; format: cell-based
Cannabinoid receptor 2 [2] = biological target: T1, Cannabinoid receptor 2; test: Antagonist activity at human CB2 receptor expressed in CHO cell membranes assessed as inhibition of HU-210-induced [35S]GTPgammaS binding; format: functional
Cannabinoid receptor 2 [3] = biological target: T1, Cannabinoid receptor 2; test: Activity at human CB2 receptor expressed in CHO cell membranes by [35S]GTPgammaS binding assay; format: functional
Cannabinoid receptor 2 [4] = biological target: T1, Cannabinoid receptor 2; test: Agonist activity at human CB2 receptor expressed in CHO cell membranes by [35S]GTPgammaS binding assay; format: functional
[5] = biological target: Cannabinoid receptor 1 (Rattus norvegicus) (UniProt P20272); test: Agonist activity at CB1 receptor in rat cerebellar membranes at < 10 uM by [35S]GTPgammaS binding assay; format: functional, cell membranes; conditions: Cerebellum, Membrane
Chain of Cannabinoid receptor 1 (Rattus norvegicus) (P20272 whole entry): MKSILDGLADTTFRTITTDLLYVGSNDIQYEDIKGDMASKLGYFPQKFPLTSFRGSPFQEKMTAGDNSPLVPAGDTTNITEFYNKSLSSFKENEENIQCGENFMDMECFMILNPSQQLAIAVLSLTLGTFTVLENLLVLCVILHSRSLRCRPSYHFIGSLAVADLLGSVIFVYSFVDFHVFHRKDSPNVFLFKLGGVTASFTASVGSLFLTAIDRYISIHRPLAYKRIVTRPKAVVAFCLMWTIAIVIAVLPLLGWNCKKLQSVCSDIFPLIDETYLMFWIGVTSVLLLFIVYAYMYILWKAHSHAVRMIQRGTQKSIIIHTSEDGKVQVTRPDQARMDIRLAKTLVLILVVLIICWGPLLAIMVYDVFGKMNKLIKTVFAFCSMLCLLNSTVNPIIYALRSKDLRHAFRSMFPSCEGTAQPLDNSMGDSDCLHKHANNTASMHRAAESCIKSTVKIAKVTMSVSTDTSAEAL

[6] = biological target: Cannabinoid receptor 1 (Rattus norvegicus) (UniProt P20272); test: Antagonist activity at CB1 receptor in rat cerebellar membranes assessed as inhibition of HU-210-induced [35S]GTPgammaS binding at 10 uM; format: functional, cell membranes; conditions: Cerebellum, Membrane
Cannabinoid receptor 2 [7] = biological target: T1, Cannabinoid receptor 2; test: Neutral antagonist activity at human CB2 receptor expressed in CHO membranes assessed as inhibition of inverse agonist SR144528-induced responses by [35S]GTPgammaS binding assay; format: functional, cell membranes
Cannabinoid receptor 2 [8] = biological target: T1, Cannabinoid receptor 2; test: Neutral antagonist activity at human CB2 receptor expressed in CHO membranes assessed as inhibition of agonist HU-210-induced responses by [35S]GTPgammaS binding assay; format: functional, cell membranes
Cannabinoid receptor 2 [9] = biological target: T1, Cannabinoid receptor 2; test: Competitive antagonist activity at human CB2 receptor expressed in CHO membranes assessed as inhibition of HU-210-induced [35S]GTPgammaS binding by Schild-plot; format: functional, cell membranes; conditions: read-out: pA2 (converted)

Question: Which results are given for CCCCc1cc(-c2ccc(OC)cc2)cc(C(=O)N[C@H]2CC[C@@H](C)CC2)c1OC?
Answer: Ki (Cannabinoid receptor 1): 1.55 µM; Ki (Cannabinoid receptor 2 [1]): 0.022 µM; Ratio Ki (HEK293): 70; inhibition (Cannabinoid receptor 2 [2]): Active; Activity (Cannabinoid receptor 2 [3]): inactive

Question: What does the source list for CCCCc1cc(-c2ccc(OC)cc2)cc(C(=O)N[C@H]2CC[C@H](C)CC2)c1OC?
Answer: Ki (Cannabinoid receptor 1): 2.29 µM; Ki (Cannabinoid receptor 2 [1]): 0.143 µM; Ratio Ki (HEK293): 16; inhibition (Cannabinoid receptor 2 [2]): Active; Activity (Cannabinoid receptor 2 [3]): inactive

Question: Which Ki (Cannabinoid receptor 1) does the source give for COc1ccc(-c2cc(C)c(OC)c(C(=O)N[C@H]3CC[C@H](C)CC3)c2)cc1 here?
Answer: > 10 µM

Question: And the Ki (Cannabinoid receptor 2 [1])?
Answer: > 10 µM

Question: For COc1c(C)cc(-c2ccc(F)cc2)cc1C(=O)N[C@H]1CC[C@@H](C)CC1, which Ki (Cannabinoid receptor 1) is on record?
Answer: 0.18 µM

Question: What about the Ki (Cannabinoid receptor 2 [1]) of the same compound?
Answer: 0.06 µM

Question: And the Ratio Ki (HEK293)?
Answer: 3

Question: What about the EC50 (Cannabinoid receptor 2 [4]) of the same compound?
Answer: 0.398 µM

Question: What about the Activity [5] of the same compound?
Answer: inactive

Question: What about the inhibition [6] of the same compound?
Answer: Active

Question: What does the source list for COc1c(C)cc(-c2ccccc2)cc1C(=O)NC1CCCCCC1?
Answer: Ki (Cannabinoid receptor 1): 0.87 µM; Ki (Cannabinoid receptor 2 [1]): 0.1 µM; Ratio Ki (HEK293): 8.7

Question: Which Ki (Cannabinoid receptor 1) does the source give for COc1c(C)cc(-c2ccc(F)cc2)cc1C(=O)NC1CCCCCC1 here?
Answer: 0.16 µM

Question: What about the Ki (Cannabinoid receptor 2 [1]) of the same compound?
Answer: 0.06 µM

Question: And the Ratio Ki (HEK293)?
Answer: 2.67

Question: And the EC50 (Cannabinoid receptor 2 [4])?
Answer: 0.398 µM

Question: What about the Activity [5] of the same compound?
Answer: inactive

Question: And the inhibition [6]?
Answer: Active

Question: How did the Ratio Ki (HEK293) turn out when CCCC(C)(C)c1ccc2c(c1)OC(C)(C)[C@@H]1CC=C(C)C[C@@H]21 was run?
Answer: 226

Question: Which results are given for COc1c(C)cc(-c2ccc(F)cc2)cc1C(=O)N[C@H]1CC[C@H](C)CC1?
Answer: Ki (Cannabinoid receptor 1): 0.62 µM; Ki (Cannabinoid receptor 2 [1]): 0.09 µM; Ratio Ki (HEK293): 6.89

Question: Which results are given for COc1ccc(-c2cc(C)c(OC)c(C(=O)N[C@H]3CC[C@@H](C)CC3)c2)cc1?
Answer: Ki (Cannabinoid receptor 1): > 10 µM; Ki (Cannabinoid receptor 2 [1]): > 10 µM

Question: How did the Ki (Cannabinoid receptor 1) turn out when COc1ccc(-c2cc(C)c(OC)c(C(=O)NC3CCCCCC3)c2)cc1 was run?
Answer: > 10 µM

Question: What about the Ki (Cannabinoid receptor 2 [1]) of the same compound?
Answer: > 10 µM

Question: With CCCCc1cc(-c2ccc(OC)cc2)cc(C(=O)NC2CCCCCC2)c1OC as the compound, how does the Ki (Cannabinoid receptor 1) read?
Answer: 1.49 µM

Question: What about the Ki (Cannabinoid receptor 2 [1]) of the same compound?
Answer: 0.0115 µM

Question: What about the Ratio Ki (HEK293) of the same compound?
Answer: 130

Question: And the inhibition (Cannabinoid receptor 2 [2])?
Answer: Active

Question: And the Activity (Cannabinoid receptor 2 [3])?
Answer: inactive

Question: What about the inhibition (Cannabinoid receptor 2 [7]) of the same compound?
Answer: Dose-dependent effect

Question: And the inhibition (Cannabinoid receptor 2 [8])?
Answer: Dose-dependent effect

Question: And the Kb (Cannabinoid receptor 2 [9])?
Answer: 0.794 µM

Question: How did the Ki (Cannabinoid receptor 1) turn out when COc1c(C)cc(-c2ccccc2)cc1C(=O)N[C@H]1CC[C@@H](C)CC1 was run?
Answer: 1.09 µM

Question: And the Ki (Cannabinoid receptor 2 [1])?
Answer: 0.15 µM

Question: And the Ratio Ki (HEK293)?
Answer: 7.27

Question: Which results are given for COc1c(C)cc(-c2ccccc2)cc1C(=O)N[C@H]1CC[C@H](C)CC1?
Answer: Ki (Cannabinoid receptor 1): 1.53 µM; Ki (Cannabinoid receptor 2 [1]): 0.09 µM; Ratio Ki (HEK293): 17
